Source: PubChem BioAssay AID256 (DTP/NCI, 2004)
Where “and” joins values, the source holds several entries; their conditions need not be identical. Identical values can stand only once. Inconclusive results and toxic doses are left out.

Test system: CD2F1 mice, L1210 leukemia ip, survival T/C
Assay: NCI In Vivo Anticancer Drug Screen. Data for tumor model L1210 Leukemia (intraperitoneal) in CD2F1 (CDF1) mice
Conditions: higher = longer survival
Description: The antitumor activity of compounds was measured in mice bearing transplantable tumors. Survival or tumor size were measured and the results are expressed as the measurement made in the treated group (T) divided by the measurement made in the vehicle treated control group (C). The tumor model used in this assay is L1210 Leukemia (intraperitoneal) in CD2F1 (CDF1) mice

[1] = endpoint: mean survival time, dose: 100.0 mg/kg/injection, schedule: Q01DX001 (ip), vehicle: saline with Tween-80
[2] = endpoint: mean survival time, dose: 200.0 mg/kg/injection, schedule: Q01DX001 (ip), vehicle: saline with Tween-80
[3] = endpoint: mean survival time, dose: 400.0 mg/kg/injection, schedule: Q01DX001 (ip), vehicle: saline with Tween-80
[4] = endpoint: mean survival time, dose: 100.0 mg/kg/injection, schedule: Q04DX003 (ip), vehicle: saline with Tween-80
[5] = endpoint: mean survival time, dose: 200.0 mg/kg/injection, schedule: Q04DX003 (ip), vehicle: saline with Tween-80
[6] = endpoint: mean survival time, dose: 50.0 mg/kg/injection, schedule: Q01DX001 (ip), vehicle: Klucel (hydroxypropylcellulose) (HPC)
[7] = endpoint: mean survival time, dose: 100.0 mg/kg/injection, schedule: Q01DX001 (ip), vehicle: Klucel (hydroxypropylcellulose) (HPC)
[8] = endpoint: mean survival time, dose: 100.0 mg/kg/injection, schedule: Q01DX009 (ip), vehicle: saline with Tween-80
[9] = endpoint: mean survival time, dose: 200.0 mg/kg/injection, schedule: Q01DX009 (ip), vehicle: saline with Tween-80
[10] = endpoint: mean survival time, dose: 400.0 mg/kg/injection, schedule: Q04DX003 (ip), vehicle: saline with Tween-80

`CCCCCCCCCCCCCCCCCC(=O)OCC(=O)OCC(=O)[C@]1(O)Cc2c(O)c3c(c(O)c2[C@@H](OC2CC(N)C(O)C(C)O2)C1)C(=O)c1c(OC)cccc1C3=O` (stereo partly specified) was tested, and the T/C (endpoint: mean survival time, dose: 0.37 mg/kg/injection, schedule: Q01DX009 (ip), vehicle: saline) was 116 % of control, the T/C (endpoint: mean survival time, dose: 0.39 mg/kg/injection, schedule: Q01DX005 (ip), vehicle: water) was 122 % of control and 112 % of control and the T/C (endpoint: mean survival time, dose: 0.75 mg/kg/injection, schedule: Q01DX009 (ip), vehicle: saline) was 115 % of control. For the same compound, the T/C (endpoint: mean survival time, dose: 0.78 mg/kg/injection, schedule: Q01DX005 (ip), vehicle: water) was 118 % of control and 119 % of control, the T/C (endpoint: mean survival time, dose: 1.5 mg/kg/injection, schedule: Q01DX009 (ip), vehicle: saline) was 115 % of control and the T/C (endpoint: mean survival time, dose: 3.13 mg/kg/injection, schedule: Q01DX005 (ip), vehicle: other) was 152 % of control. For the same compound, the T/C (endpoint: mean survival time, dose: 3.13 mg/kg/injection, schedule: Q01DX005 (ip), vehicle: water) was 209 % of control, the T/C (endpoint: mean survival time, dose: 6.25 mg/kg/injection, schedule: Q01DX005 (ip), vehicle: other) was 156 % of control and the T/C (endpoint: mean survival time, dose: 6.25 mg/kg/injection, schedule: Q01DX005 (ip), vehicle: water) was 124 % of control. The T/C (endpoint: mean survival time, dose: 12.0 mg/kg/injection, schedule: Q01DX009 (ip), vehicle: saline) was 157 % of control and the T/C (endpoint: mean survival time, dose: 12.5 mg/kg/injection, schedule: Q01DX005 (ip), vehicle: other) was 90 % of control.

For `CC(=O)OCC1(OC2OC(CNC(=O)N(C)N=O)C(OC(C)=O)C(OC(C)=O)C2OC(C)=O)OC(CNC(=O)N(C)N=O)C(OC(C)=O)C1OC(C)=O` (stereo unspecified), the T/C (endpoint: mean survival time, dose: 12.5 mg/kg/injection, schedule: Q01DX009 (ip), vehicle: other) was 102 % of control, the T/C (endpoint: mean survival time, dose: 25.0 mg/kg/injection, schedule: Q01DX009 (ip), vehicle: other) was 102 % of control and the T/C (endpoint: mean survival time, dose: 50.0 mg/kg/injection, schedule: Q01DX009 (ip), vehicle: other) was 109 % of control. For the same compound, the T/C (endpoint: mean survival time, dose: 100.0 mg/kg/injection, schedule: Q01DX009 (ip), vehicle: other) was 105 % of control and the T/C (endpoint: mean survival time, dose: 200.0 mg/kg/injection, schedule: Q01DX009 (ip), vehicle: other) was 119 % of control.

In the case of `O=C(c1ccccc1)C1C(C(=O)c2ccccc2)C1c1ccccc1` (stereo unspecified), the T/C [1] is reported as 87 % of control, the T/C [2] is reported as 90 % of control and the T/C [3] is reported as 93 % of control.

`CN(Cc1ccccc1)c1ccc2nc(N)nc(N)c2c1` was tested, and the T/C [4] was 103 % of control and the T/C [5] was 110 % of control.

In the case of `C(=N\Nc1nc2ccccc2s1)/c1ccncc1`, the T/C (endpoint: mean survival time, dose: 100.0 mg/kg/injection, schedule: Q04DX003 (ip), vehicle: Klucel (hydroxypropylcellulose) (HPC)) is reported as 90 % of control, the T/C (endpoint: mean survival time, dose: 200.0 mg/kg/injection, schedule: Q04DX003 (ip), vehicle: Klucel (hydroxypropylcellulose) (HPC)) is reported as 92 % of control and the T/C (endpoint: mean survival time, dose: 400.0 mg/kg/injection, schedule: Q04DX003 (ip), vehicle: Klucel (hydroxypropylcellulose) (HPC)) is reported as 90 % of control.

For `CC(=O)Cc1nc(N)nc(Nc2ccc(Cl)c(Cl)c2)n1`, the T/C (endpoint: mean survival time, dose: 100.0 mg/kg/injection, schedule: Q01DX009 (ip), vehicle: saline) was 96 % of control, the T/C (endpoint: mean survival time, dose: 200.0 mg/kg/injection, schedule: Q01DX009 (ip), vehicle: saline) was 97 % of control and the T/C (endpoint: mean survival time, dose: 400.0 mg/kg/injection, schedule: Q01DX009 (ip), vehicle: saline) was 111 % of control.

`Cc1cc(SC(=O)N(C)C)c(S(=O)(=O)F)cc1Cl` was tested, and the T/C (endpoint: mean survival time, dose: 100.0 mg/kg/injection, schedule: Q04DX002 (ip), vehicle: saline with Tween-80) was 87 % of control, the T/C (endpoint: mean survival time, dose: 200.0 mg/kg/injection, schedule: Q04DX002 (ip), vehicle: saline with Tween-80) was 87 % of control and the T/C (endpoint: mean survival time, dose: 400.0 mg/kg/injection, schedule: Q04DX002 (ip), vehicle: saline with Tween-80) was 93 % of control.

For `N=[N+]=CC(=O)CC(N)C(=O)O` (stereo unspecified), the T/C (endpoint: median survival time, dose: 400.0 mg/kg/injection, schedule: Q01DX001 (ip), vehicle: saline) was 111 % of control, the T/C (endpoint: median survival time, dose: 800.0 mg/kg/injection, schedule: Q01DX001 (ip), vehicle: saline) was 112 % of control and the T/C (endpoint: median survival time, dose: 1600.0 mg/kg/injection, schedule: Q01DX001 (ip), vehicle: saline) was 25 % of control.

In the case of `Cc1cc(N2C(=O)CCSC2=S)ccc1Cl`, the T/C (endpoint: mean survival time, dose: 12.5 mg/kg/injection, schedule: Q01DX009 (ip), vehicle: Klucel (hydroxypropylcellulose) (HPC)) is reported as 101 % of control and 105 % of control, the T/C (endpoint: mean survival time, dose: 25.0 mg/kg/injection, schedule: Q01DX009 (ip), vehicle: Klucel (hydroxypropylcellulose) (HPC)) is reported as 95 % of control and 103 % of control and 109 % of control and the T/C (endpoint: mean survival time, dose: 50.0 mg/kg/injection, schedule: Q01DX009 (ip), vehicle: Klucel (hydroxypropylcellulose) (HPC)) is reported as 113 % of control and 97 % of control. The T/C (endpoint: mean survival time, dose: 100.0 mg/kg/injection, schedule: Q01DX009 (ip), vehicle: Klucel (hydroxypropylcellulose) (HPC)) was 122 % of control and 123 % of control and 97 % of control, the T/C (endpoint: mean survival time, dose: 200.0 mg/kg/injection, schedule: Q01DX009 (ip), vehicle: Klucel (hydroxypropylcellulose) (HPC)) was 95 % of control and 107 % of control and the T/C (endpoint: mean survival time, dose: 400.0 mg/kg/injection, schedule: Q01DX009 (ip), vehicle: Klucel (hydroxypropylcellulose) (HPC)) was 102 % of control.

For `CCCSP(SCCC)SCCC`, the T/C [6] was 107 % of control, the T/C [7] was 96 % of control and the T/C (endpoint: mean survival time, dose: 200.0 mg/kg/injection, schedule: Q01DX001 (ip), vehicle: Klucel (hydroxypropylcellulose) (HPC)) was 101 % of control.

`CCOc1cccc(Cl)n1` was tested, and the T/C [8] was 94 % of control, the T/C [4] was 101 % of control and the T/C [9] was 102 % of control. For the same compound, the T/C [5] was 98 % of control and the T/C [10] was 98 % of control.

`O=C1C=CC(=O)C(c2cn(C3CC(O)C(CO)O3)c(=O)[nH]c2=O)=C1` (stereo unspecified) was tested, and the T/C (endpoint: median survival time, dose: 12.5 mg/kg/injection, schedule: Q01DX005 (ip), vehicle: saline with Tween-80) was 111 % of control, the T/C (endpoint: median survival time, dose: 25.0 mg/kg/injection, schedule: Q01DX005 (ip), vehicle: saline with Tween-80) was 111 % of control and the T/C (endpoint: median survival time, dose: 50.0 mg/kg/injection, schedule: Q01DX005 (ip), vehicle: saline with Tween-80) was 108 % of control. The T/C (endpoint: median survival time, dose: 100.0 mg/kg/injection, schedule: Q01DX005 (ip), vehicle: saline with Tween-80) was 121 % of control and the T/C (endpoint: median survival time, dose: 200.0 mg/kg/injection, schedule: Q01DX005 (ip), vehicle: saline with Tween-80) was 105 % of control.

With `Cc1ccc(C(=O)C2CC(Br)C(Br)CC2C(=O)c2ccc(C)cc2)cc1` (stereo unspecified) the T/C [8] was 90 % of control, the T/C [4] was 100 % of control and the T/C [9] was 86 % of control. The T/C [5] was 100 % of control, the T/C (endpoint: mean survival time, dose: 400.0 mg/kg/injection, schedule: Q01DX009 (ip), vehicle: saline with Tween-80) was 86 % of control and the T/C [10] was 97 % of control.

For `O/N=C(/CC(O)(c1ccccc1)c1ccccc1)c1ccccc1`, the T/C (endpoint: mean survival time, dose: 75.0 mg/kg/injection, schedule: Q01DX001 (ip), vehicle: saline) was 98 % of control, the T/C (endpoint: mean survival time, dose: 150.0 mg/kg/injection, schedule: Q01DX001 (ip), vehicle: saline) was 103 % of control and the T/C (endpoint: mean survival time, dose: 300.0 mg/kg/injection, schedule: Q01DX001 (ip), vehicle: saline) was 95 % of control.

For `CCC(C=O)(CC)CCC#N`, the T/C (endpoint: mean survival time, dose: 25.0 mg/kg/injection, schedule: Q01DX001 (ip), vehicle: Klucel (hydroxypropylcellulose) (HPC)) was 96 % of control, the T/C [6] was 103 % of control and the T/C [7] was 87 % of control. The T/C [1] was 103 % of control, the T/C [2] was 100 % of control and the T/C [3] was 100 % of control.

`O=C1C(=O)c2ccccc2-c2ccccc21.O=C1C(=O)c2ccccc2-c2ccccc21.[Hg]` was tested, and the T/C (endpoint: mean survival time, dose: 1.56 mg/kg/injection, schedule: Q04DX002 (ip), vehicle: saline with Tween-80) was 87 % of control, the T/C (endpoint: mean survival time, dose: 3.13 mg/kg/injection, schedule: Q04DX002 (ip), vehicle: saline with Tween-80) was 98 % of control and the T/C (endpoint: mean survival time, dose: 6.25 mg/kg/injection, schedule: Q04DX002 (ip), vehicle: saline with Tween-80) was 113 % of control.

For `NCC[Se][Se]CCN`, the T/C (endpoint: median survival time, dose: 1.56 mg/kg/injection, schedule: Q01DX009 (ip), vehicle: suspension in saline) was 98 % of control, the T/C (endpoint: median survival time, dose: 3.13 mg/kg/injection, schedule: Q01DX009 (ip), vehicle: suspension in saline) was 105 % of control and the T/C (endpoint: median survival time, dose: 6.25 mg/kg/injection, schedule: Q01DX009 (ip), vehicle: suspension in saline) was 108 % of control.

In the case of `Nc1nc2c(ncn2-c2cccc(NC(=O)CBr)c2)c(=O)[nH]1`, the T/C (endpoint: mean survival time, dose: 37.5 mg/kg/injection, schedule: Q01DX001 (ip), vehicle: saline with Tween-80) is reported as 95 % of control, the T/C (endpoint: mean survival time, dose: 75.0 mg/kg/injection, schedule: Q01DX001 (ip), vehicle: saline with Tween-80) is reported as 100 % of control and the T/C (endpoint: mean survival time, dose: 150.0 mg/kg/injection, schedule: Q01DX001 (ip), vehicle: saline with Tween-80) is reported as 92 % of control.
